Values quoted from earlier work as cited in patent US20150313913A1, “POSITIVE ALLOSTERIC MODULATORS OF THE GABA-A RECEPTOR IN THE TREATMENT OF AUTISM” (UNIVERSITY OF WASHINGTON THROUGH ITS CENTER FOR …, priority 2013, published 2015).
Read-outs that look alike come from different tables or passages of the source.

Key:
[1] = test system: GABA-A receptor; details: cited from earlier work; for Effect at GABA-A receptor: Table 1, exemplary benzodiazepines
[2] = cited from earlier work; for Dose in humans for anti-anxiety, anti-convulsive, or sedative effects, per day: Table 1, typical daily dose; for Dose in humans for anti-anxiety, anti-convulsive, or sedative effects (dose range, typical or average dose): Table 1, values not marked *
[3] = Table 4, exemplary non-BDZ GABA-A enhancers

Row | Compound | Effect at GABA-A receptor [1] | Dose in humans for anti-anxiety, anti-convulsive, or sedative effects: equivalent dose to 10 mg diazepam ([2]; Table 1, values marked *) [mg] | also measured
1 | Cc1ncc2n1-c1ccc(Cl)cc1C(c1ccccc1F)=NC2 [Midazolam] | Agonist Short- acting | 7.5 | 
2 | O=C1CN=C(c2ccccn2)c2cc(Br)ccc2N1 [Bromazepam] | Agonist | 5 to 6 | 
3 | CCN(CC)CCN1C(=O)CN=C(c2ccccc2F)c2cc(Cl)ccc21 [Flurazepam] | Partial agonist | 15 to 30 | 
4 | O=C1CN=C(c2ccccc2)c2cc(Cl)ccc2N1CC(F)(F)F [Halazepam] | Agonist | 20 to 40 | 
5 | CCOC(=O)C1N=C(c2ccccc2F)c2cc(Cl)ccc2NC1=O (centres unmarked) [Ethyl loflazepate] | Agonist (Prodrug) | 2 | 
6 | CCc1cc2c(s1)-n1c(C)nnc1CN=C2c1ccccc1Cl [Etizolam] | Full agonist | 0.5 to 1 | 
7 | CC(C)(C)OC(=O)c1ncn2c1[C@@H]1CCCN1C(=O)c1c(Br)cccc1-2 [Bretazenil] | Partial Agonist High potency | 0.5 | 
8 | C#CCN1C(=O)CN=C(c2ccccc2)c2cc(Cl)ccc21 [Pinazepam] | Agonist | 20 | 
9 | CCC1C(C)=NN=C(c2ccc(OC)c(OC)c2)c2cc(OC)c(OC)cc21 (centres unmarked) [Tofisopam] | Agonist |  | Dose in humans for anti-anxiety, anti-convulsive, or sedative effects, per day [2]: Typical dose 50- 300 mg/day in divided doses
10 | CP(C)(=O)CN1C(=O)CN=C(c2ccccc2)c2cc(Cl)ccc21 [Fosazepam] | Agonist Low potency | 60 | 
11 | CCc1cc2c(s1)N(C)C(=O)CN=C2c1ccccc1Cl [Clotiazepam] | Full agonist | 5 to 10 | 
12 | CN1CCN(C(=O)OC2c3nccnc3C(=O)N2c2ccc(Cl)cn2)CC1 (centres unmarked) [Zopiclone] |  |  | Effect at GABA receptor [1, 3]: Full agonist; Dose in humans for anti-anxiety, anti-convulsive, or sedative effects: equivalent dose to 10 mg diazepam ([2]; Table 4, values marked *): 15 mg
13 | O=C1CN=C(c2ccccc2Cl)c2cc(Br)ccc2N1 [Phenazepam] | Agonist | 1 | Dose in humans for anti-anxiety, anti-convulsive, or sedative effects (dose range, typical or average dose) [2]: 0.5 mg
14 | CN1C(=O)CN=C(c2ccccc2)c2cc(Cl)ccc21 [Diazepam] | Agonist Long- acting | 10 | dose typically administered to achieve an anxiolytic or anti-convulsive effect ([2]; 2-4 times daily): 2 to 10 mg
15 | Cc1nnc2n1-c1ccc(Br)cc1C(c1ccccn1)=NC2 [Pyrazolam] | Agonist | 1 | 
16 | O=C1CN=C(c2ccccc2F)c2cc(Cl)ccc2N1CC1CC1 [Flutoprazepam] | Agonist | 2 to 3 | 
17 | O=C1CN=C(c2ccccc2)c2cc(Cl)ccc2N1 [Nordazepam] | Partial agonist | 10 | 
18 | N#CCCN1C(=O)C(O)N=C(c2ccccc2F)c2cc(Cl)ccc21 (centres unmarked) [Cinolazepam] | Agonist | 40 | 
19 | CNC1=Nc2ccc(Cl)cc2C(c2ccccc2)=[N+]([O-])C1 [Chlordiazepoxide] | Agonist Long- acting | 25 | 
20 | CN1C(=O)CN=C(c2ccccc2F)c2cc([N+](=O)[O-])ccc21 [Flunitrazepam] | Agonist | 1 | 
21 | O=C1Nc2ccc(Cl)cc2C(c2ccccc2Cl)=NC1O (centres unmarked) [Lorazepam] | Agonist High- potency | 1 | 

Row | Compound | Effect at GABA-A receptor [1] | Dose in humans for anti-anxiety, anti-convulsive, or sedative effects: equivalent dose to 10 mg diazepam ([2]; Table 1, values marked *) [mg] | also measured
22 | CN1CCN(/C=C2\N=C3CN=C(c4ccccc4Cl)c4cc([N+](=O)[O-])ccc4N3C2=O)CC1 [Loprazolam] | Agonist | 2 | Dose in humans for anti-anxiety, anti-convulsive, or sedative effects (dose range, typical or average dose) [2]: 1 to 2 mg
23 | O=C1CN=C(c2ccccc2Cl)c2cc(Cl)ccc2N1 [Delorazepam] | Agonist | 1 | 
24 | CC1=CC(=O)N2CC(=O)N(C)c3ccc(Cl)cc3C2(c2ccccc2)O1 (centres unmarked) [Ketazolam] | Agonist | 15 to 30 | 
25 | Cc1nnc2n1-c1ccc(Cl)cc1C(c1ccccc1)=NC2 [Alprazolam] | Full agonist |  | Dose in humans for anti-anxiety, anti-convulsive, or sedative effects (dose range, typical or average dose) [2]: dose range of 0.5 to 3.0 mg
26 | Cc1nnc2n1-c1sc(Br)cc1C(c1ccccc1Cl)=NC2 [Brotizolam] | Agonist | 0.25 | Dose in humans, sedative ([2]; Table 1, Sedative): 0.125 to 25 mg; Dose in humans, anti-anxiety ([2]; Table 1, anti-anxiety): 80 to 100 mg
27 | O=C1CN=C(c2ccccc2)c2cc(Cl)ccc2N1CC1CC1 [Prazepam] | Agonist (Prodrug) | 20 | 
28 | Cc1c2c(cn1C)NC(=O)CN=C2c1ccccc1 [Premazepam] | Partial agonist | 15 | 
29 | O=C1CN=C(c2ccccc2)c2cc([N+](=O)[O-])ccc2N1 [Nitrazepam] | Full agonist Long- acting | 10 | 
30 | CN1CCN(C(=O)O[C@H]2c3nccnc3C(=O)N2c2ccc(Cl)cn2)CC1 [Eszopiclone] |  |  | Effect at GABA receptor [1, 3]: Agonist; Dose in humans for anti-anxiety, anti-convulsive, or sedative effects: equivalent dose to 10 mg diazepam ([2]; Table 4, values marked *): 3 mg
31 | O=C(O)C1N=C(c2ccccc2)c2cc(Cl)ccc2NC1=O (centres unmarked) [Clorazepate] | Partial Agonist (Prodrug) | 15 | Dose in humans for anti-anxiety, anti-convulsive, or sedative effects, per day [2]: 15 to 60 mg/day
32 | O=C1CN2CCOC2(c2ccccc2Cl)c2cc(Cl)ccc2N1 (centres unmarked) [Cloxazolam] | Agonist (Prodrug) | 1 | 
33 | CN(C(=O)CNC(=O)[C@@H](N)CCCCN)c1ccc(Cl)cc1C(=O)c1ccccc1 [Avizafone] | Full agonist |  | Dose in humans for anti-anxiety, anti-convulsive, or sedative effects ([2]; Table 1): 3.5 mg/kg
34 | Clc1ccc2c(c1)C(c1ccccc1)=NCc1nncn1-2 [Estazolam] | Agonist | 2 | 
35 | CCN(C(C)=O)c1cccc(-c2ccnc3c(C#N)cnn23)c1 [Zaleplon] |  |  | Effect at GABA receptor ([1]; Table 2, exemplary SS-PAMs): Full agonist α1 selective Acts on α2,3 at higher doses Ultra short- acting; Dose in humans for anti-anxiety, anti-convulsive, or sedative effects (marked *) ([2]; Table 2): 20 mg
36 | O=C1Nc2ccc(Cl)cc2C(c2ccccc2)=NC1O (centres unmarked) [Oxazepam] | Agonist Short- acting | 20 | Dose in humans, mild/moderate anxiety ([2]; Table 1, 1 to 2 times daily): 10 to 15 mg; Dose in humans, severe anxiety ([2]; Table 1, 3 to 4 times daily): 15 to 30 mg; Dose in humans, symptoms related to alcohol withdrawal ([2]; Table 1, 3 to 4 times daily): 15 to 30 mg
37 | CN1C(=O)CN=C(C2=CCCCC2)c2cc(Cl)ccc21 [Tetrazepam] | Agonist | 100 | Dose in humans for anti-anxiety, anti-convulsive, or sedative effects, per day [2]: 50 to 300 mg/day
38 | CN1C(=O)C(O)N=C(c2ccccc2)c2cc(Cl)ccc21 (centres unmarked) [Temazepam] | Agonist | 20 | 
39 | CN1CCN=C(c2ccccc2)c2cc(Cl)ccc21 [Medazepam] | Agonist Long- acting | 10 | 
40 | CN1C(=O)C(O)N=C(c2ccccc2Cl)c2cc(Cl)ccc21 (centres unmarked) [Lormetazepam] | Agonist Short- acting | 1.5 | 
41 | CN1C(=O)CN=C(c2ccccc2)c2cc([N+](=O)[O-])ccc21 [Nimetazepam] | Agonist | 5 | 
